Some test systems named below: OVCAR-5 ovarian; HOP-62 NSCLC; NCI-H460 lung; CCRF-CEM leukemia; UO-31 renal; K-562 leukemia; SK-MEL-2 melanoma; A498 renal; MALME-3M melanoma; MDA-MB-435; MDA-MB-231 breast.
Assay in all cases: growth of human tumour cells (NCI), 48 h

Several values for one entry are separate records, joined by “and”; a condition that tells them apart may be missing. Equal values may be shown once.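 Values below derive from 48-hour exposures of cells grown in 96-well plates, with endpoints linearly interpolated between the two concentrations bracketing the appropriate inhibition level. GI50 = concentration required for 50% inhibition of growth. TGI is the concentration that stops growth completely.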 Bounds are passed on as bounds.

With `NC(N)=NCCC[C@H](N)C(=O)NCC(=O)N[C@@H](CC(=O)O)c1ncc(NC(=O)C(F)(F)F)o1`, the TGI in the assay with OVCAR-5 ovarian, in the assay with HOP-62 NSCLC, in the assay on NCI-H460 lung, in the assay on CCRF-CEM leukemia, with UO-31 renal and with K-562 leukemia was above 25 µM in each case. Further, the TGI with SK-MEL-2 melanoma, in the assay on A498 renal, in the assay with MALME-3M melanoma and in the assay with MDA-MB-435 was above 25 µM each time.
With `NC(N)=N/N=C/c1c[nH]c2ccccc12`, the TGI in the assay with OVCAR-5 ovarian, in the assay on HOP-62 NSCLC, in the assay on NCI-H460 lung, in the assay with CCRF-CEM leukemia, in the assay with UO-31 renal and in the assay with K-562 leukemia was above 100 µM in each case. Besides, the TGI with SK-MEL-2 melanoma and in the assay with MALME-3M melanoma was above 100 µM in each case.
On to `CCOC(=O)c1nc2ccc(C(F)(F)F)cc2nc1NCc1cc(OC)c(OC)c(OC)c1`, for which the TGI with OVCAR-5 ovarian is above 100 µM; with HOP-62 NSCLC, above 100 µM; with UO-31 renal it was 99.5 µM; in the assay on SK-MEL-2 melanoma, above 100 µM; in the assay with MDA-MB-231 breast, above 100 µM; in the assay on A498 renal it was above 100 µM. Also, the TGI in the assay with MDA-MB-435 is above 100 µM.
As for `CCN(CC)C(=O)Cn1c(C)cc2ccccc21`, the TGI with OVCAR-5 ovarian, in the assay with HOP-62 NSCLC, with NCI-H460 lung, in the assay with CCRF-CEM leukemia, with UO-31 renal and in the assay on K-562 leukemia was above 100 µM in each case. For the same compound, the TGI in the assay on SK-MEL-2 melanoma, with MDA-MB-231 breast, in the assay with MALME-3M melanoma and in the assay on MDA-MB-435 was above 100 µM each time.
On to `O=C(N/N=C/c1ccccc1)c1c(-c2cccnc2)cnc2ccccc12`, for which the TGI in the assay with OVCAR-5 ovarian, in the assay on HOP-62 NSCLC, with NCI-H460 lung, with CCRF-CEM leukemia, with UO-31 renal and in the assay with K-562 leukemia was above 100 µM throughout. Also, the TGI with SK-MEL-2 melanoma and in the assay on MALME-3M melanoma was above 100 µM in each case.
Consider `C=CCCN1CCc2c([nH]c3ccccc23)C1C(=O)O` (stereo not given), for which the TGI with OVCAR-5 ovarian, in the assay on HOP-62 NSCLC, in the assay on NCI-H460 lung, with CCRF-CEM leukemia, in the assay with UO-31 renal and in the assay with K-562 leukemia was above 100 µM throughout. Moreover, the TGI in the assay with SK-MEL-2 melanoma, with A498 renal and in the assay on MALME-3M melanoma was above 100 µM in each case.
As to `O=C1CCC(c2ccc(Cl)cc2)=NN1c1nsc2ccccc12`, the TGI in the assay with OVCAR-5 ovarian was above 100 µM; in the assay on HOP-62 NSCLC, above 100 µM; with NCI-H460 lung it was above 100 µM; with CCRF-CEM leukemia, 80 µM; in the assay with UO-31 renal it was 59.1 µM; in the assay on K-562 leukemia, 68 µM. Moreover, the TGI in the assay with SK-MEL-2 melanoma stood at 38.7 µM.
In the case of `Cc1ccc(SCC(CF)OC(C)n2cnc3c(=O)[nH]c(N)nc32)cc1` (stereo not given), the TGI in the assay on OVCAR-5 ovarian, in the assay with HOP-62 NSCLC, in the assay with NCI-H460 lung, with CCRF-CEM leukemia, with UO-31 renal and in the assay with SK-MEL-2 melanoma was above 100 µM throughout. The TGI with MDA-MB-231 breast, with MALME-3M melanoma and with MDA-MB-435 was above 100 µM in each case.
For `Cn1cc(NC(=O)c2cc(NC(=O)CN=C(N)N)cn2C)cc1C(=O)NCCC(=N)N`, the TGI in the assay on OVCAR-5 ovarian, in the assay on HOP-62 NSCLC, with NCI-H460 lung, in the assay with CCRF-CEM leukemia, in the assay on UO-31 renal and in the assay on K-562 leukemia was above 100 µM in each case. Moreover, the TGI in the assay with SK-MEL-2 melanoma, in the assay with A498 renal, in the assay on MALME-3M melanoma and in the assay on MDA-MB-435 was above 100 µM each time.
Take `OCC(O)COCn1nncc1Cn1ncc2c(SCc3ccccc3)ncnc21` (stereo not given): the TGI with OVCAR-5 ovarian, in the assay on HOP-62 NSCLC, in the assay on CCRF-CEM leukemia, with UO-31 renal, in the assay on SK-MEL-2 melanoma and with MDA-MB-231 breast was above 100 µM each time. For the same compound, the TGI in the assay with A498 renal and in the assay with MDA-MB-435 was above 100 µM throughout.
As to `COc1cc(C(=O)N(Cc2cccnc2)C(=S)N(Cc2cccnc2)C(=O)c2cc(OC)c(OC)c(OC)c2)cc(OC)c1OC`, the TGI in the assay on OVCAR-5 ovarian, in the assay with HOP-62 NSCLC, in the assay on NCI-H460 lung, in the assay on CCRF-CEM leukemia, in the assay on UO-31 renal and with K-562 leukemia was above 100 µM in each case. The results for the TGI with A498 renal, in the assay with MALME-3M melanoma and with MDA-MB-435 were 52.9 µM, above 100 µM and above 100 µM, respectively.
Take `COc1cc(/C=C(\C#N)C(N)=O)cc(Br)c1O`: the TGI with OVCAR-5 ovarian, in the assay on HOP-62 NSCLC, in the assay with NCI-H460 lung, in the assay with CCRF-CEM leukemia, with UO-31 renal and in the assay with K-562 leukemia was above 100 µM in each case. Further, the TGI with SK-MEL-2 melanoma, with A498 renal and with MALME-3M melanoma was above 100 µM in each case. Also, the GI50 was 32.1 µM and 43.2 µM in the assay with K-562 leukemia; > 100 µM and 60.3 µM with A498 renal.
As to `COc1ccccc1/C=C1\SC(=S)N(/C=C2\C(=O)Oc3ccccc3C2=O)C1=O`, the TGI is above 100 µM in the assay with OVCAR-5 ovarian; above 100 µM with CCRF-CEM leukemia; 83.2 µM with UO-31 renal; above 100 µM with K-562 leukemia; 59.4 µM with SK-MEL-2 melanoma; 47.7 µM in the assay with MDA-MB-231 breast. For the same compound, the TGI with MALME-3M melanoma was determined as 64 µM; in the assay with MDA-MB-435, 86.5 µM.
Turning to `CNc1ccc(C(=O)CC(O)CCC(C)C2OC(=O)CC(O)CC(=O)CC(O)CC(O)CC(O)CC(O)CC3(O)CC(O)C(C(=O)OC)C(CC(O[C@@H]4O[C@H](C)[C@@H](O)[C@H](N)[C@@H]4O)/C=C/C=C/C=C/C=C/C=C/C=C/C=C/C2C)O3)cc1` (stereo not given in full), the GI50 was 3.7 µM in the assay with OVCAR-5 ovarian; 2.27 µM in the assay on HOP-62 NSCLC; 2.97 µM with NCI-H460 lung; 5.05 µM in the assay on K-562 leukemia; 3.59 µM in the assay with SK-MEL-2 melanoma; 2.88 µM in the assay on MDA-MB-231 breast. In addition, the values for the GI50 with A498 renal and in the assay on MDA-MB-435 were 1.23 µM and 2.02 µM, respectively. In addition, the TGI was above 100 µM in the assay with OVCAR-5 ovarian; 5.03 µM with HOP-62 NSCLC; 10.1 µM with NCI-H460 lung; 40.2 µM in the assay on K-562 leukemia; 8.86 µM in the assay on SK-MEL-2 melanoma; above 100 µM in the assay on MDA-MB-231 breast. In addition, the TGI in the assay on A498 renal is 2.89 µM; in the assay on MDA-MB-435 it was 6.19 µM.
